Tests used:
[1] = system: MCF-7 breast cancer cells; test: Real-time polymerase chain reaction of apoptosis genes; assay type: cell-based, human; conditions: 5, 10, and 20 μM, GAPDH as control
Description: RNA was isolated using Trizol Reagent (Invitrogen, Carlsbad, California, USA). cDNA was made via the manufacturer’s instructions with the first chain of a cDNA synthesizing kit (Fermentas, Lithuania). Real-time polymerase chain reaction (RT-PCR) was performed on a Da An Gene DA7600 Real Time machine using Da An Gene incorporation (ZhongShan, China). The 2^−ΔΔCT method was used to calculate the relative levels of gene expression using Da An Gene DA7600 QPCR software v3.00 (Da An Gene). The GAPDH (human) expression was used as the internal control. A standard melting-curve cycle was used to confirm the quality of amplification. The reactions were performed in triplicate for each sample. The gene-specific primers were designed with the Primer5 BLAST software by GenScript Co., Ltd. (Nanjing, China): • 1 GAPDH (human): primer (122 bp), • Sense primer: 5′ […] 3’ • Antisense primer: 5′ […] 3′ • 2 Apaf-1 (human): primer (134 bp), • Sense primer: 5′ […] 3′ • Antisense primer: 5′ […] 3′ • 3 Bax (human): primer (112 bp), • Sense primer: 5 ′TTGCTTCAGGGTTTCATCC 3′ • Antisense primer: 5′ […] 3′ • 4 Bcl-2 (human): primer (116 bp), • Sense primer: 5′ […] 3′ • Antisense primer: 5′ […] 3′ • 5 Bcl-xL (human): primer (124 bp), • Sense primer: 5′ […] 3′ • Antisense primer: 5′ […] 3′ • 6 Caspase-3 (human): primer (131 bp), • Sense primer: 5′ […] 3′ • Antisense primer: 5′ […] 3′ • 7 Caspase-8 (human): primer (122 bp), • Sense primer: 5′ […] 3′ • Antisense primer: 5′ […] 3′ • 8 Caspase-9 (human): primer (136 bp), • Sense primer: 5′ […] 3′ • Antisense primer: 5′ […] 3′ • 9 Cytochrome c (human): primer (127 bp), • Sense primer: 5′ […] 3′ • Antisense primer: 5′ […] 3′

| Compound | mRNA expression levels of Apaf-1, Bax, caspase-3, caspase-8, caspase-9, and cytochrome c [1] | mRNA expression levels of Bcl-2 and Bcl-xL [1] | melting point [°C] |
| --- | --- | --- | --- |
| 17 β-[6-(Uracil-3-yl)-Hexyloxy]-2-Methoxy-Estra-1,3,5(10)-Triene-3-ol [Compound 12a] | upregulated | downregulated | – |
| COc1cc2c(cc1O)CC[C@@H]1[C@@H]2CC[C@]2(C)[C@@H](OCCCCCCCCn3c(=O)ccn([C@@H]4O[C@H](CO)[C@@H](O)[C@H]4O)c3=O)CC[C@@H]12 [Compound 11, 17 β-[8-(1-β-D-Ribofuranosyluracil-3-yl)-Octyloxy]-2-Methoxy-Estra-1,3,5(10)-Triene-3-ol] | upregulated | downregulated | 95 to 96 |

— article PMC7023064, “Design, Synthesis, and Evaluation of Novel 2-Methoxyestradiol Derivatives as Apoptotic Inducers through an Intrinsic Apoptosis Pathway” (Biomolecules, 2020)
